Counter-ions that a name gives are not always drawn. Like-named read-outs stand apart in the source and are kept apart here.
Experiments:
[1] = tested on: KHYG-1 NK cell-mediated lysis of K562 cells; test: Inhibition of KHYG-1 NK cell-mediated lysis of K562 cells (51Cr release); format: cell-based; conditions: K562 target cells, Effector:Target 2:1, 4 hours at 37° C.
Protocol: Inhibition of KHYG-1 NK Cell-Mediated Lysis of K562 Cells.
Test compounds were added to KHYG-1 cells at various concentrations up to 20 µM and incubated at RT for 20 minutes. 1×10^6 K562 target cells were labelled with 75 μCi ^51Cr in 200 μl RPMI for 90 mins at 37° C., cells were washed as described above and resuspended in 5 ml RPMI+0.1% BSA. 50 μl of ^51Cr labelled K562 leukemia target cells were added to each well of the KHYG-1 plate (Effector:Target 2:1) and incubated at 37° C. for 4 hours. ^51Cr release was assayed using a Skatron Harvesting Press and radioactivity estimated on a Wallac Wizard 1470 Automatic Gamma counter (Turku, Finland). The percentage of specific cytotoxicity was calculated by the formula: […]

recombinant perforin = recombinant perforin (UniProt P10820); format: cell-based
Sequence of recombinant perforin (P10820 whole entry): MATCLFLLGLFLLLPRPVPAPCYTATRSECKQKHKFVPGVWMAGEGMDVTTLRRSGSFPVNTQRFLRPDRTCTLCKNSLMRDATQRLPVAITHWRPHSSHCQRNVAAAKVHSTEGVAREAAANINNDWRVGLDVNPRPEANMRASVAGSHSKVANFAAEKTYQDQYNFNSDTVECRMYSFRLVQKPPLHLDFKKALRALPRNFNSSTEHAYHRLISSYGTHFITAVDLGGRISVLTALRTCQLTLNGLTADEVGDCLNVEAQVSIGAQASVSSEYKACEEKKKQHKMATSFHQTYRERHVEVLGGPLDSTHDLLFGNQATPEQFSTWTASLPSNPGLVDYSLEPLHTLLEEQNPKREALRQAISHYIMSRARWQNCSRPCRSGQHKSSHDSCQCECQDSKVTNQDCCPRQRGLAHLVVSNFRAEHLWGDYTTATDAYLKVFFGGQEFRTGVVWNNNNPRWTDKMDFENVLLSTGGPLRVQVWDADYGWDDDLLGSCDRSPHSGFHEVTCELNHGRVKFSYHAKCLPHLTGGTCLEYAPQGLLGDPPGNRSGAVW
Protocol: Inhibition of perforin-mediated lysis of Jurkat cells.
The ability of the compounds to inhibit the lysis of nucleated (Jurkat T lymphoma) cells in the presence of 0.1% BSA, as measured by release of ^51Cr was measured. Jurkat target cells were labelled by incubation in medium with 100 μCi ^51Cr for one hour. The cells were then washed three times to remove unincorporated isotope and re-suspended at 1×10^5 cells per mL in RPMI buffer supplemented with 0.1% BSA. […] Each data point was performed in triplicate and an IC50 was calculated from the range of concentrations described to above.

[2] = lysis of Jurkat T lymphoma cells by recombinant perforin, 0.1% BSA, 30 min pre-incubation, 4 hours at 37° C.; read-out: Jurkat IC50
[3] = read-out: Jurkat IC50; lysis of Jurkat T lymphoma cells by recombinant perforin, 0.1% BSA, 30 min pre-incubation, 4 hours at 37° C.

Structure (SMILES)	inhibition at 20 µM ([1]; 4 h) [%]	IC50 (recombinant perforin; [2]) [µM]	other results
CN1Cc2cc(-c3ccc(-c4cncc(NS(=O)(=O)c5ccc(F)cc5F)c4)s3)ccc2C1=O [Compound 1, 2,4-Difluoro-N-(5-(5-(2-methyl-1-oxoisoindolin-5-yl)thiophen-2-yl)pyridin-3-yl)benzenesulfonamide]	46	–	–
CN1Cc2cc(-c3ccc(-c4cncc(NS(=O)(=O)c5ccc(F)cc5)c4)s3)ccc2C1=O [Compound 6, 4-Fluoro-N-(5-(5-(2-methyl-1-oxoisoindolin-5-yl)thiophen-2-yl)pyridin-3-yl)benzene-sulfonamide]	10	9.65	–
CN1Cc2cc(-c3ccc(-c4cncc(NS(=O)(=O)c5c(F)cc(F)cc5F)c4)s3)ccc2C1=O [Compound 8, 2,4,6-Trifluoro-N-(5-(5-(2-methyl-1-oxoisoindolin-5-yl)thiophen-2-yl)pyridin-3-yl)benzene-sulfonamide]	52	1.76	–
CN1Cc2cc(-c3ccc(-c4cncc(NS(=O)(=O)c5ccc(Cl)cc5)c4)s3)ccc2C1=O [Compound 11, 4-Chloro-N-(5-(5-(2-methyl-1-oxoisoindolin-5-yl)thiophen-2-yl)pyridin-3-yl)benzenesulfonamide]	–	5.39	inhibition at 20 µM [1]: 17%
CN1Cc2cc(-c3ccc(-c4cncc(NS(=O)(=O)c5ccc(Cl)cc5)c4)s3)ccc2C1=O [Compound 11.Na, 4-Chloro-N-(5-(5-(2-methyl-1-oxoisoindolin-5-yl)thiophen-2-yl)pyridin-3-yl)benzenesulfonamide]	14	8.28	–
CN1Cc2cc(-c3ccc(-c4cncc(NS(=O)(=O)c5cccc(Cl)c5F)c4)s3)ccc2C1=O [Compound 14, 3-Chloro-2-fluoro-N-(5-(5-(2-methyl-1-oxoisoindolin-5-yl)thiophen-2-yl)pyridin-3-yl)benzenesulfonamide]	–	13	–
COc1ccc(S(=O)(=O)Nc2cncc(-c3ccc(-c4ccc5c(c4)CN(C)C5=O)s3)c2)cc1OC [Compound 21.Na, 3,4-Dimethoxy-N-(5-(5-(2-methyl-1-oxoisoindolin-5-yl)thiophen-2-yl)pyridin-3-yl)benzenesulfonamide, sodium salt]	31	–	–
CN1Cc2cc(-c3ccc(-c4cncc(NS(=O)(=O)c5ccccc5[N+](=O)[O-])c4)s3)ccc2C1=O [Compound 28, N-(5-(5-(2-Methyl-1-oxoisoindolin-5-yl)thiophen-2-yl)pyridin-3-yl)-2-nitrobenzenesulfonamide]	71	6.65	–
CN1Cc2cc(-c3ccc(-c4cncc(NS(=O)(=O)c5ccc([N+](=O)[O-])cc5)c4)s3)ccc2C1=O [Compound 29, N-(5-(5-(2-Methyl-1-oxoisoindolin-5-yl)thiophen-2-yl)pyridin-3-yl)-4-nitrobenzenesulfonamide]	48	2.74	–
CN1Cc2cc(-c3ccc(-c4cncc(NS(=O)(=O)c5ccc([N+](=O)[O-])cc5)c4)s3)ccc2C1=O [Compound 29.Na, N-(5-(5-(2-Methyl-1-oxoisoindolin-5-yl)thiophen-2-yl)pyridin-3-yl)-4-nitrobenzenesulfonamide]	–	3.34	Inhibition of KHYG-1 at 20 μM (%) [1]: 49%
CN1Cc2cc(-c3ccc(-c4cncc(NS(=O)(=O)c5ccc(C#N)cc5)c4)s3)ccc2C1=O [Compound 30, 4-Cyano-N-(5-(5-(2-methyl-1-oxoisoindolin-5-yl)thiophen-2-yl)pyridin-3-yl)benzenesulfonamide]	49	5.17	–
CN1Cc2cc(-c3ccc(-c4cnc(F)c(NS(=O)(=O)c5ccc(F)cc5F)c4)s3)ccc2C1=O [Compound 39, 2,4-Difluoro-N-(2-fluoro-5-(5-(2-methyl-1-oxoisoindolin-5-yl)thiophen-2-yl)pyridin-3-yl)benzenesulphonamide]	56	1.99	–
CN1Cc2cc(-c3ccc(-c4cnc(F)c(NS(=O)(=O)c5ccc(F)cc5F)c4)s3)ccc2C1=O [Compound 39.Na, 2,4-Difluoro-N-(2-fluoro-5-(5-(2-methyl-1-oxoisoindolin-5-yl)thiophen-2-yl)pyridin-3-yl)benzenesulphonamide]	–	0.75	Inhibition of KHYG-1 at 20 μM (%) [1]: 48%
CN1Cc2cc(-c3ccc(-c4cnc(Cl)c(NS(=O)(=O)c5ccc(F)cc5F)c4)s3)ccc2C1=O [Compound 40, 2,4-Difluoro-N-(2-chloro-5-(5-(2-methyl-1-oxoisoindolin-5-yl)thiophen-2-yl)pyridin-3-yl)benzenesulphonamide]	85	1.03	–
O=C1NCc2cc(-c3ccc(-c4cncc(NS(=O)(=O)c5ccc(F)cc5F)c4)s3)ccc21 [Compound 48, 2,4-Difluoro-N-(5-(5-(1-oxoisoindolin-5-yl)thiophen-2-yl)pyridin-3-yl)benzenesulfonamide]	35	–	–
O=C1NCc2ccc(-c3ccc(-c4cncc(NS(=O)(=O)c5ccc(F)cc5F)c4)s3)cc21 [Compound 49, 2,4-Difluoro-N-(5-(5-(3-oxoisoindolin-5-yl)thiophen-2-yl)pyridin-3-yl)benzenesulfonamide]	49	–	IC50 (recombinant perforin; [3]): 13.2 µM
CN1Cc2cc(-c3ccc(-c4cncc(NS(=O)(=O)c5ccccc5)c4)s3)ccc2C1=O [Compound 62, N-(5-(5-(2-Methyl-1-oxoisoindolin-5-yl)thiophen-2-yl)pyridin-3-yl)benzenesulphonamide]	9.71 ± 2	8.46	–
CN1Cc2cc(-c3ccc(-c4ccc(OC(F)(F)F)c(NS(=O)(=O)c5ccccn5)c4)s3)ccc2C1=O [Compound 63.Na, N-(5-(5-(2-Methyl-1-oxoisoindolin-5-yl)thiophen-2-yl)-2-(trifluoromethoxy)phenyl)pyridine-2-sulfonamide]	–	19.6	Inhibition of KHYG-1 at 20 μM (%) [1]: 77.07 ± 5%
CN1C(=O)Cc2cc(-c3ccc(-c4cncc(NS(=O)(=O)c5ccc(F)cc5F)c4)s3)ccc21 [Compound 66, 2,4-Difluoro-N-(5-(5-(1-methyl-2-oxoindolin-5-yl)thiophen-2-yl)pyridin-3-yl)benzenesulfonamides]	34.3 ± 9	–	IC50 (recombinant perforin; [3]): 10.2 µM
CN1Cc2cc(-c3ccc(-c4cncc(NC(=S)NC(=O)c5ccc(F)cc5)c4)s3)ccc2C1=O [Compound 68, 4-Fluoro-N-((5-(5-(2-methyl-1-oxoisoindolin-5-yl)thiophen-2-yl)pyridin-3-yl)carbamothioyl)benzamide]	–	15.9	–
O=C1c2ccc(-c3ccc(-c4cncc(NS(=O)(=O)c5ccc(F)cc5F)c4)s3)cc2CN1CCN1CCOCC1 [Compound 69, 2,4-Difluoro-N-(5-(5-(2-(2-morpholinoethyl)-1-oxoisoindolin-5-yl)thiophen-2-yl)pyridin-3-yl)benzenesulfonamide]	–	17	–
O=S(=O)(Nc1cncc(-c2ccc(-c3ccc4[nH]ccc4c3)s2)c1)c1ccc(F)cc1F [Compound 71, N-(5-(5-(1H-indol-5-yl)thiophen-2-yl)pyridin-3-yl)-2,4-difluorobenzenesulfonamide]	87.7 ± 9	–	–
CN1Cc2cc(-c3ccc(-c4cncc(NS(=O)(=O)c5ccccc5C#N)c4)s3)ccc2C1=O [Compound 79.Na, 2-Cyano-N-(5-(5-(2-methyl-1-oxoisoindolin-5-yl)thiophen-2-yl)pyridin-3-yl)benzenesulfonamides]	–	9.17	–
Cc1cc(C)n(-c2ccc(S(=O)(=O)Nc3cncc(-c4ccc(-c5ccc6c(c5)CN(C)C6=O)s4)c3)cc2)n1 [Compound 80, 4-(3,5-Dimethyl-1H-pyrazol-1-yl)-N-(5-(5-(2-methyl-1-oxoisoindolin-5-yl)thiophen-2-yl)pyridin-3-yl)benzenesulfonamides]	–	19.1	–
CN1Cc2cc(-c3ccc(-c4cncc(NS(=O)(=O)c5ccc(F)cc5F)c4)nc3)ccc2C1=O [Compound 83, 2,4-Difluoro-N-(5-(2-methyl-1-oxoisoindolin-5-yl)-[2,3′-bipyridin]-5′-yl)benzenesulphonamide]	–	8.17	–
CCOC(=O)c1ccc(S(=O)(=O)Nc2cncc(-c3ccc(-c4ccc5c(c4)CN(C)C5=O)s3)c2)cc1 [Compound 85, Ethyl 4-(N-(5-(5-(2-methyl-1-oxoisoindolin-5-yl)thiophen-2-yl)pyridin-3-yl)sulfamoyl)benzoate]	–	19.4	–
CN1Cc2cc(-c3ccc(-c4cnc(F)c(NS(=O)(=O)c5ccccn5)c4)s3)ccc2C1=O [Compound 90, N-(2-Fluoro-5-(5-(2-methyl-1-oxoisoindolin-5-yl)thiophen-2-yl)pyridin-3-yl)pyridine-2-sulfonamide]	–	4.1	–
COC(=O)c1cccc(S(=O)(=O)Nc2cncc(-c3ccc(-c4ccc5c(c4)CN(C)C5=O)s3)c2)c1 [Compound 91, Methyl 3-(N-(5-(5-(2-methyl-1-oxoisoindolin-5-yl)thiophen-2-yl)pyridin-3-yl)sulfamoyl)benzoate]	–	7.77	–

— patent US9896443B2, “Perforin inhibiting benzenesulfonamide compounds, preparation and uses thereof” (Peter MacCallum Cancer Institute, priority 2012, dated 2018)
